Source: US8383637B2, “2-amino-quinazoline derivatives useful as inhibitors of β-secretase (BACE)” (Jansssen Pharmaceutica N.V., priority 2004, dated 2013)
Where two headings read alike, the source gives them in different places.

Experiments:
Assay type in all cases: biochemical
β-secretase(BACE) [1] = target: T1, β-secretase(BACE) (Homo sapiens, UniProt P56817); test: BACE % Inhibition Assay ((Aedens)-[…]-(Dabcyl K-amide) substrate); details: % error ±10%
T1 construct: purchased Panvera
Procedure: The substrate stock solution was prepared in DMSO as a 10 mg/mL solution. The substrate working solution was prepared by diluting the 10 mg/mL stock solution with substrate assay buffer to a final concentration of 300 μg/mL. The β-secretase (BACE) working solution was prepared by diluting a 0.83 mg/mL BACE stock solution with enzyme assay buffer to a final concentration of 4 μg/mL.
Test compounds were dissolved in DMSO to 10 mM.
The screening procedure for this assay was as follows: 15 μL of BACE working solution was pipetted into each well of a 96-well plate. To each well was then pipetted 2 μL of test compound at the selected concentration. Test compound and BACE were then mixed with a pipettor and incubated for 20 min at room temperature. To each well was then added 10 μL of the substrate working solution. The plates were then incubated for 1 hour at room temperature.
The procedure for the blank was as follows. 15 μL of assay buffer was pipetted into each well to be used as a blank control. To each well was then added 2 μL of vehicle and 10 μL of substrate working solution. The plates were then incubated for 1 hour at room temperature.
The procedure for the positive control was as follows: 15 μl of BACE working solution was pipetted into each well to be used as a positive control. To each well was then pipetted 2 μL of vehicle. Vehicle and BACE were then mixed with a pipettor and incubated for 20 min at room temperature. To each well was then added 10 μL of the substrate working solution. The plates were then incubated for 1 hour at room temperature.
For test compounds, % inhibition was determined at each concentration as follows: […]

β-secretase(BACE) [2] = target: T1, β-secretase(BACE); test: BACE Assay-1 (MCA-substrate, IC50); details: procedure of Example 158; read-out: IC50 μM (158)
Method in brief: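 Human BACE (work solution 10 μg/mL) with MCA-peptide substrate (stock 2.0 mg/mL) in 0.05 M citrate buffer, pH 5.0, with PEG8000. Fluorescence read at T0 and T60; compounds tested at multiple concentrations and IC50 calculated from these readings.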

β-secretase(BACE) [3] = target: T1, β-secretase(BACE); test: BACE Assay-2 (FS1 substrate, IC50 and Ki); details: procedure of Example 159, FS1 substrate; for Ki: read-out: Ki μM (159)
β-secretase(BACE) [4] = target: T1, β-secretase(BACE); test: BACE FS1% Inhibition Assay; details: FS1 substrate; for inhibition at 0.3 µM: read-out: % Inhibition (FS) 0.3 μM; for inhibition at 1 µM: read-out: % Inhibition (FS) 1 μM; for inhibition at 10 µM: 10 μM test compound
Method in brief: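 Percent inhibition at each tested concentration, referenced to enzyme-free blank and vehicle-only positive control. Reaction: compound and BACE (4 μg/mL working stock) mixed 20 min at room temperature before FS1 substrate (300 μg/mL working stock), then 1 h at room temperature.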

[5] = 3 μM test compound, read-out: % Inhibition (FS) 3 μM
[6] = read-out: % Inhibition (FS) 10 μM

T1 sequence (P56817 46-501): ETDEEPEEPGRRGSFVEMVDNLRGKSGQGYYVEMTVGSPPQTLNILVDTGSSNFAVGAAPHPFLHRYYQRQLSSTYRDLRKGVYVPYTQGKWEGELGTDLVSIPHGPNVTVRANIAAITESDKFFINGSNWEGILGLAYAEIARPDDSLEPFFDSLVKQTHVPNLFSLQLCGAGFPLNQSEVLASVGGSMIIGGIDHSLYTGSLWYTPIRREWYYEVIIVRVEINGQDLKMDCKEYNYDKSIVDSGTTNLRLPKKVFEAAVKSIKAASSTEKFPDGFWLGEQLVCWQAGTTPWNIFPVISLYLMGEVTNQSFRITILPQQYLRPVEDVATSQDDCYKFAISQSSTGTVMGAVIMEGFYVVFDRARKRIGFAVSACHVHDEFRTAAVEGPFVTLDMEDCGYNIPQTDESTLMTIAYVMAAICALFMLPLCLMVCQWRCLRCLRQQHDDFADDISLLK

SMILES: CCCN1Cc2cc(Oc3cccc(NC(=O)C4CCCCC4)c3)ccc2N=C1N [Compound 44]
- % Inhibition (β-secretase(BACE) [1]; 3 μM test compound): <30%
- % Inhibition (β-secretase(BACE) [1]; 10 μM test compound): 31%

SMILES: CN(C(=O)[C@H]1CCCC[C@H]1N1Cc2cc(Oc3ccccc3)ccc2N=C1N)C1CCCCC1 [Compound 81]
- % Inhibition (β-secretase(BACE) [1]; 3 μM test compound): <30%
- % Inhibition (β-secretase(BACE) [1]; 10 μM test compound): <30%

SMILES: CN(C(=O)c1cccc(CN2Cc3cc(-c4ccccc4Br)ccc3N=C2N)c1)C1CCCCC1 [Compound 331]
- IC50 (β-secretase(BACE) [2]): 0.089 µM
- Ki (β-secretase(BACE) [3]): 0.19 µM
- inhibition at 0.3 µM (β-secretase(BACE) [4]; 0.3 μM test compound): < 30%
- inhibition at 1 µM (β-secretase(BACE) [4]; 1 μM test compound): 60%
- inhibition at 3 µM (β-secretase(BACE) [4]; [5]): 108%

SMILES: CCN(CC)CCN1Cc2cc(Oc3ccccc3)ccc2N=C1N [Compound 79]
- % Inhibition (β-secretase(BACE) [1]; 3 μM test compound): <30%
- % Inhibition (β-secretase(BACE) [1]; 10 μM test compound): <30%

SMILES: CC1CCCCC1C(=O)NCCN1Cc2cc(Oc3ccccc3)ccc2N=C1N (centres unmarked) [Compound 218]
- IC50 (β-secretase(BACE) [2]): 0.13 µM
- Ki (β-secretase(BACE) [3]): 0.1 µM
- inhibition at 0.3 µM (β-secretase(BACE) [4]; 0.3 μM test compound): 75%
- inhibition at 1 µM (β-secretase(BACE) [4]; 1 μM test compound): 101%
- inhibition at 3 µM (β-secretase(BACE) [4]; [5]): 114%

SMILES: NC1=Nc2ccc(Oc3ccccc3)cc2CN1Cc1cccc(CNC(=O)C(c2ccccc2)c2ccccc2)c1 [Compound 337]
- % Inhibition (β-secretase(BACE) [1]; 0.3 μM test compound): <30%
- % Inhibition (β-secretase(BACE) [1]; 1 μM test compound): <30%
- % Inhibition (β-secretase(BACE) [1]; 3 μM test compound): <30%

SMILES: CN(C(=O)[C@@H]1CCC[C@@H]1N1Cc2cc(Oc3ccccc3)ccc2N=C1N)C1CCCCC1 [Compound 72]
- % Inhibition (β-secretase(BACE) [1]; 3 μM test compound): <30%
- % Inhibition (β-secretase(BACE) [1]; 10 μM test compound): <30%

SMILES: CCCN1Cc2cc(Oc3cccc(NC(=O)CCCC(=O)N(C)C4CCCCC4)c3)ccc2N=C1N [Compound 755]
- IC50 (β-secretase(BACE) [2]): 0.21 µM
- IC50 (β-secretase(BACE) [3]): 1.9 µM
- Ki (β-secretase(BACE) [3]): 0.27 µM
- inhibition at 3 µM (β-secretase(BACE) [4]; 3 μM test compound, read-out: % Inhibition (FS)): 59%
- inhibition at 10 µM (β-secretase(BACE) [4]; read-out: % Inhibition (FS)): 79%

SMILES: CN(C(=O)c1cccc(CN2Cc3cc(-c4ccccc4O)ccc3N=C2N)c1)C1CCCCC1 [Compound 169]
- IC50 (β-secretase(BACE) [2]): 0.058 µM
- Ki (β-secretase(BACE) [3]): 0.08 µM
- inhibition at 0.3 µM (β-secretase(BACE) [4]; 0.3 μM test compound): 80%
- inhibition at 1 µM (β-secretase(BACE) [4]; 1 μM test compound): 104%
- inhibition at 3 µM (β-secretase(BACE) [4]; [5]): 109%

SMILES: C[C@H](CNC(=O)C1CCCCC1)N1Cc2cc(Oc3ccccc3)ccc2N=C1N [Compound 495, (R)-Enantiomer of cyclohexanecarboxylic acid [2-(2-amino-6-phenoxy-4H-quinazolin-3-yl)-propyl]-amide]
- IC50 (β-secretase(BACE) [2]): 0.25 µM
- Ki (β-secretase(BACE) [3]): 0.1 µM
- inhibition at 0.3 µM (β-secretase(BACE) [4]; 0.3 μM test compound): < 30%
- inhibition at 1 µM (β-secretase(BACE) [4]; 1 μM test compound): 75%
- inhibition at 3 µM (β-secretase(BACE) [4]; [5]): 106%

SMILES: CC(C)C(=O)NCC(C1CCCCC1)N1Cc2cc(Oc3ccccc3)ccc2N=C1N (centres unmarked) [Compound 301]
- IC50 (β-secretase(BACE) [2]): 0.15 µM
- Ki (β-secretase(BACE) [3]): 0.21 µM
- % Inhibition (FS) 0.3 μM (β-secretase(BACE) [4]; 0.3 μM test compound): <30%
- % Inhibition (FS) 1 μM (β-secretase(BACE) [4]; 1 μM test compound): 82%
- % Inhibition (FS) 3 μM (β-secretase(BACE) [4]; 3 μM test compound): 106%

SMILES: CN(C(=O)c1ccc(CN2Cc3cc(Oc4ccccc4)ccc3N=C2N)cc1)C1CCCCC1 [Compound 97]
- % Inhibition (β-secretase(BACE) [1]; 3 μM test compound): <30%
- % Inhibition (β-secretase(BACE) [1]; 10 μM test compound): 53%

SMILES: CC(C)OC(=O)NCCN1Cc2cc(Oc3ccccc3)ccc2N=C1N [Compound 220, [2-(2-Amino-6-phenoxy-4H-quinazolin-3-yl)-ethyl]-carbamic acid isopropyl ester]
- IC50 (β-secretase(BACE) [2]): 0.45 µM
- Ki (β-secretase(BACE) [3]): 0.2 µM
- inhibition at 0.3 µM (β-secretase(BACE) [4]; 0.3 μM test compound): 103%
- inhibition at 1 µM (β-secretase(BACE) [4]; 1 μM test compound): 72%
- inhibition at 3 µM (β-secretase(BACE) [4]; [5]): 102%

SMILES: NC1=Nc2ccc(Oc3ccccc3)cc2CN1Cc1cccc(CNC(=O)C23CC4CC(CC(C4)C2)C3)c1 [Compound 336]
- % Inhibition (β-secretase(BACE) [1]; 0.3 μM test compound): <30%
- % Inhibition (β-secretase(BACE) [1]; 1 μM test compound): <30%
- % Inhibition (β-secretase(BACE) [1]; 3 μM test compound): <30%

SMILES: CCCC(CCC)C(=O)NCC(C1CCCCC1)N1Cc2cc(Oc3ccccc3)ccc2N=C1N (centres unmarked) [Compound 302]
- IC50 (β-secretase(BACE) [2]): 0.05 µM
- Ki (β-secretase(BACE) [3]): 0.14 µM
- inhibition at 0.3 µM (β-secretase(BACE) [4]; 0.3 μM test compound): < 30%
- inhibition at 1 µM (β-secretase(BACE) [4]; 1 μM test compound): 72%
- inhibition at 3 µM (β-secretase(BACE) [4]; [5]): 108%

SMILES: CN(C(=O)[C@@H]1CCCN1C(=O)CN1Cc2cc(Oc3ccccc3)ccc2N=C1N)C1CCCCC1 [Compound 88]
- % Inhibition (β-secretase(BACE) [1]; 3 μM test compound): <30%
- % Inhibition (β-secretase(BACE) [1]; 10 μM test compound): <30%

SMILES: CC(C)C(=O)NCCN1Cc2cc(Oc3ccccc3)ccc2N=C1N [Compound 121]
- IC50 (β-secretase(BACE) [2]): 0.58 µM
- Ki (β-secretase(BACE) [3]): 0.32 µM
- inhibition at 3 µM (β-secretase(BACE) [4]; [5]): 103%
- inhibition at 10 µM (β-secretase(BACE) [4]; [6]): 117%

SMILES: CCCC(CCC)C(=O)NCCN1Cc2cc(Oc3ccccc3)ccc2N=C1N [Compound 183]
- IC50 (β-secretase(BACE) [2]): 0.058 µM
- Ki (β-secretase(BACE) [3]): 0.19 µM
- inhibition at 0.3 µM (β-secretase(BACE) [4]; 0.3 μM test compound): 48%
- inhibition at 1 µM (β-secretase(BACE) [4]; 1 μM test compound): 93%
- inhibition at 3 µM (β-secretase(BACE) [4]; [5]): 106%

SMILES: CCCC(CCCC(=O)N(C)C1CCCCC1)N1Cc2cc(Oc3ccccc3)ccc2N=C1N (centres unmarked) [Compound 90]
- IC50 (β-secretase(BACE) [2]): 0.074 µM
- Ki (β-secretase(BACE) [3]): 0.22 µM
- inhibition at 3 µM (β-secretase(BACE) [4]; [5]): 106%
- inhibition at 10 µM (β-secretase(BACE) [4]; [6]): 124%
